The subject of series [1] is mammalian cells expressing an immunoadhesin (DG44). Briefly: Transition of immunoadhesin-expressing cells from glutamine-containing to glutamine-free media: cell viability and growth rate (trypan blue exclusion, Cedex). The series is classed as cell-based. The following applies: 2.5 μM corticosteroid in glutamine-free media; FIG. 3. The text has this:
Cell culture methods: Cells were thawed and maintained as in a previous report (Kshirsagar, et al. 2012 Biotechnol Bioeng, Huang, et al. Biotechnology Progress 26(5):1400-1410 (2010)). Basal medium for thaw and passing was the same as in previous reports (Kshirsagar/Huang).

The subject of series [2] is anti alpha-synuclein CHO cells. The series can be described thus: Transition of anti alpha-synuclein CHO cells from glutamine-containing to glutamine-free media: growth rate and viability.
Experimental: Anti alpha-synuclein cells were transferred from glutamine-containing media to glutamine-free media using a 1:5 split ratio on Day 0. Cells were cultured at 36° C., 5% CO2 in 500 mL shake flasks and passaged every 4 days using glutamine-free media+10 mg/L insulin (first bar in FIG. 7A, diamond in FIG. 7B), glutamine-free media+10 mg/L insulin, 100 μM hypoxanthine, 16 μM thymidine (second bar in FIG. 7A, square in FIG. 7B), glutamine-free media+10 mg/L insulin, 500 μM adenosine (third bar in FIG. 7A, triangle in FIG. 7B), or glutamine-free media+10 mg/L insulin, 100 μM adenosine (fourth bar in FIG. 7A, circle in FIG. 7B), using a 1:5 split ratio.
Offline analysis: Samples were taken on most days and analyzed with a variety of equipment. Cell density and viability were measured using the standard technique of trypan blue exclusion using a Cedex (Roche Innovatis AG, Germany). Cell viability and growth rate of the various cultures were measured during the culture time course at specific days post-inoculation.
Anti alpha-synuclein CHO cells were transferred from glutamine-containing media to glutamine-free media using a 1:5 split ratio on Day 0.

As for `C[C@]12C=CC(=O)C=C1CC[C@@H]1[C@@H]2[C@@H](O)C[C@@]2(C)[C@H]1CC[C@]2(O)C(=O)CO` [prednisolone], in series [1], the “viability drop vs control condition” value is on record as “prevented the sharp viability drop” and the viability recovery period result is reported as “shortened the viability recovery period”.

Regarding `C[C@]12CCC(=O)C=C1CC[C@@H]1[C@@H]2[C@@H](O)C[C@@]2(C)[C@H]1CC[C@]2(O)C(=O)CO` [hydrocortisone], in series [1], the “viability drop vs control condition” value was “prevented the sharp viability drop” and the viability recovery period entry is “shortened the viability recovery period”.

`Nc1ncnc2c1ncn2[C@@H]1O[C@H](CO)[C@@H](O)[C@H]1O` [adenosine]: in series [2] (500 μM supplementation compared to 100 μM supplementation), the “toxicity (concentration-dependent response)” value is recorded as “slightly toxic”. Besides, the “viability during transition to glutamine-free media” value in series [2] (HT 100 μM/16 μM, adenosine 500 μM or 100 μM, FIG. 7B) is reported as “maintains”. Also, the transitional growth rate result in series [2] (transition to glutamine-free media, 1:5 split ratio, HT 100 μM/16 μM, adenosine 100 or 500 μM, FIG. 7A) is “boosted the transitional growth rate”.

These data come from patent US12441980B2, “Methods for overcoming glutamine deprivation during mammalian cell culture” (priority 2014, dated 2025).
